Test results reported in ChEMBL document CHEMBL1138016, “Azaadamantane benzamide 5-HT4 agonists: gastrointestinal prokinetic SC-54750” (Bioorg Med Chem Lett, 2004).

What was measured:
[1] = Concentration required for inhibition of 5-hydroxytryptamine 1 receptor using [3H]-5-HT as the radioligand
[2] = Concentration required for inhibition of Dopamine receptor D2 using [3H]spiperone as the radioligand
[3] = target: T1, Adrenergic receptor alpha-1 (Homo sapiens, UniProt P35348+P25100+P35368); experiment: Concentration required for inhibition of alpha-1 adrenergic receptor using [3H]prazosin as the radioligand; type: protein assay
T1 sequence (P35348 whole entry): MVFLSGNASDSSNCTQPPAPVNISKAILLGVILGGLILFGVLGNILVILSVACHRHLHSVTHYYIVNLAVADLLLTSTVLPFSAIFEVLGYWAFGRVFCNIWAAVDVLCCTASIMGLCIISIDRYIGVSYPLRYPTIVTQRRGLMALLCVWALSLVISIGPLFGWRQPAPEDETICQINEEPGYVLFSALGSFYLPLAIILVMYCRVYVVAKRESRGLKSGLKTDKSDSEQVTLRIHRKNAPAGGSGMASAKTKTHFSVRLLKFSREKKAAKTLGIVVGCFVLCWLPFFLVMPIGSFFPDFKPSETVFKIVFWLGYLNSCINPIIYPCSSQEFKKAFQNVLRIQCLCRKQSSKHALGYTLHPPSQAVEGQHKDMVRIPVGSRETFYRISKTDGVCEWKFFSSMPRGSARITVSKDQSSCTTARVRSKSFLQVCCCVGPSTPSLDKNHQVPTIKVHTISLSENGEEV
T1 sequence (P25100 whole entry): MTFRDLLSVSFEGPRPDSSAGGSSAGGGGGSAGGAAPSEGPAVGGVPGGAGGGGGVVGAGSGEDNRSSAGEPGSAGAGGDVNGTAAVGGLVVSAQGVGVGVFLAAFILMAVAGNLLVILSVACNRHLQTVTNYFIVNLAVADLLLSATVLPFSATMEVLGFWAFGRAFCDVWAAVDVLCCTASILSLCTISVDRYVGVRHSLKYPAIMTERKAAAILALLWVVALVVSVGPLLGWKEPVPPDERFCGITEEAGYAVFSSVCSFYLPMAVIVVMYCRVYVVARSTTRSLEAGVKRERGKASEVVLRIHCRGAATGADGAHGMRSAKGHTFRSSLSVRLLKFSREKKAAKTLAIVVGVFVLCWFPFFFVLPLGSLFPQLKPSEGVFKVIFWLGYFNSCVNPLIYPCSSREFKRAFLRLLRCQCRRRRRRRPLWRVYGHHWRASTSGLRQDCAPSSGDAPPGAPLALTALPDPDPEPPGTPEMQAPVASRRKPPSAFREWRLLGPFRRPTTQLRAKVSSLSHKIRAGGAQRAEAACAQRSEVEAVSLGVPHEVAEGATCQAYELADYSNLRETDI
T1 sequence (P35368 whole entry): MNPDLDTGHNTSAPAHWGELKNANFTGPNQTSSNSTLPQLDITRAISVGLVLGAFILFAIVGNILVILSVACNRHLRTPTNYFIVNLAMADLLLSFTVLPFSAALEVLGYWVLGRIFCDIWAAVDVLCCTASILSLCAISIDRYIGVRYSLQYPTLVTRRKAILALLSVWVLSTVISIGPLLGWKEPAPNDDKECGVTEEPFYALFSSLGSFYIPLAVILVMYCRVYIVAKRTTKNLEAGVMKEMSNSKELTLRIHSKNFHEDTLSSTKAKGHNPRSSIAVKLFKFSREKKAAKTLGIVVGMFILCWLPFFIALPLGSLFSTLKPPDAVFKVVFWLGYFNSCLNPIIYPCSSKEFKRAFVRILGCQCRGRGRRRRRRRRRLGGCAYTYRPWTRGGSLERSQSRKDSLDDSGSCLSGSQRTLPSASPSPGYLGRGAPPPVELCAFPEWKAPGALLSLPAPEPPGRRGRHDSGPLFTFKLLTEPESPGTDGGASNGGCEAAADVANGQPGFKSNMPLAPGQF

[4] = Concentration required for inhibition of Dopamine receptor D1 using [3H]SCH-23,390 as the radioligand
[5] = target: Serotonin 2 (5-HT2) receptor (Homo sapiens, UniProt P41595+P28223+P28335); type: protein assay
Oryctolagus cuniculus [6] = experiment: Effective dose required for restoring normal motility after i.v. administration; type: functional, Canis lupus familiaris; conditions: iv
Oryctolagus cuniculus [7] = experiment: Effective concentration required for restoring normal motility after i.v. administration; type: functional, organism-based, Canis lupus familiaris
Canis familiaris = experiment: Tested for inhibition of cisplatin-induced emesis in dog after i.g. administration; conditions: Canis lupus familiaris, po; read-out: ID50 (the source's name)
[8] = target: 5-hydroxytryptamine receptor 4 (Rattus norvegicus) (UniProt Q62758); experiment: Effective concentration required towards 5-hydroxytryptamine 4 receptor in rat tunica muscularis mucosae
[9] = target: 5-hydroxytryptamine receptor 4 (Cavia porcellus); experiment: Binding affinity for 5-hydroxytryptamine 4 receptor in guinea pig was determined by guinea pig striatum binding assay

Chain of 5-hydroxytryptamine receptor 4 (Rattus norvegicus) (Q62758 whole entry, looked up): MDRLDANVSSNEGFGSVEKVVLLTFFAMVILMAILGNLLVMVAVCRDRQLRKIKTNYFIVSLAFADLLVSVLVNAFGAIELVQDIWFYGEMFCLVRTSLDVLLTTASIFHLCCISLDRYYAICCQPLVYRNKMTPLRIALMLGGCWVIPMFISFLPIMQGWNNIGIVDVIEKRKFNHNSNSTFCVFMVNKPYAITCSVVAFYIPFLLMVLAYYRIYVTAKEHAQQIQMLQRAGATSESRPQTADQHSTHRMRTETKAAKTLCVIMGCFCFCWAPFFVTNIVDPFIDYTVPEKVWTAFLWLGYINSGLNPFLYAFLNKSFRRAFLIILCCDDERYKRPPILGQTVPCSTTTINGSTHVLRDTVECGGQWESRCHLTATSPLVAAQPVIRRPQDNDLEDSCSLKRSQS

SMILES | IC50 [1] | IC50 [2] | IC50 [3] | IC50 [4] | IC50 [5] | ED50 (Oryctolagus cuniculus [6]) | EC50 (Oryctolagus cuniculus [7]) | ED50 (Canis familiaris) | EC50 [8] | Ki [9]
COc1cc(N)c(Cl)cc1C(=O)NCC1C2CC3CC1CN(C3)C2 (stereo in doubt; 9c) | > 10 µM | > 10 µM | > 10 µM | > 10 µM | > 10 µM | 0.62 mg/kg | 0.03 mg/kg | 0.3 mg/kg |  | 
COc1cc(N)c(Cl)cc1C(=O)NC1C2CC3CC1CN(C3)C2 (stereo in doubt; 9b) |  |  | > 10 µM |  | > 10 µM |  |  |  | 0.262 µM | 0.057 µM
COc1cc(N)c(Cl)cc1C(=O)NC1C2CC3CC1CN(C3)C2 (stereo in doubt; 9a) | > 10 µM | > 10 µM | > 10 µM | > 10 µM | 1.8 µM |  |  |  | 0.538 µM | > 0.5 µM
